From BindingDB's records for doi:10.1016/j.bmcl.2012.05.114 (Vertex Pharmaceuticals, 2012)
pKi: −log10 of the molar value.

Target: Tyrosine-protein kinase SYK (Homo sapiens) (UniProt P43405)
Assay: Inhibition of SYK

Structure (SMILES): CC(C)C[C@H]1CN(c2ccc(C(F)(F)F)c(C(=O)c3cccnc3N)n2)CCN1
- pKi: < 5.40
